From ChEMBL document CHEMBL5523740, “Discovery of Potent and Selective c-Met Degraders for Hepatocellular Carcinoma Treatment” (J Med Chem, 2024)
Active and inactive are the calls of the source. The rule behind the calls is not given here.

Key:
[1] = Tmax in Sprague-Dawley rat at 10 mg/kg, po by LC-MS/MS method; type: ADME, organism-based; conditions: in vivo
MHCC97H [2] = experiment: Induction of apoptosis in human MHCC97H cells assessed as necrotic cells at 3 nM incubated for 24 hrs by Annexin-V-FITC/PI staining based flow cytometry analysis (reference value: 1.77%); type: functional
MHCC97H [3] = experiment: Antitumor activity against human MHCC97H cells xenografted in BALB/c mouse assessed as tumor growth inhibition at 20 mg/kg, po qd for 22 days and measured every 2 days by Ki67 staining based analysis; type: functional, organism-based; conditions: time 22.0 day
[4] = Toxicity in BALB/c mouse xenografted with human MHCC97H cells assessed as heart lesions at 20 mg/kg, po qd for 22 days and measured every 2 days by H and E staining based assay; type: organism-based; conditions: in vivo, 528 h, time 22 day
[5] = target: T1, Hepatocyte growth factor receptor (Homo sapiens, UniProt P08581); experiment: Induction of c-Met degradation in human MHCC97H cells at 1 uM incubated for 24 hrs by Western blotting analysis; type: cell-based
T1 sequence (P08581 whole entry): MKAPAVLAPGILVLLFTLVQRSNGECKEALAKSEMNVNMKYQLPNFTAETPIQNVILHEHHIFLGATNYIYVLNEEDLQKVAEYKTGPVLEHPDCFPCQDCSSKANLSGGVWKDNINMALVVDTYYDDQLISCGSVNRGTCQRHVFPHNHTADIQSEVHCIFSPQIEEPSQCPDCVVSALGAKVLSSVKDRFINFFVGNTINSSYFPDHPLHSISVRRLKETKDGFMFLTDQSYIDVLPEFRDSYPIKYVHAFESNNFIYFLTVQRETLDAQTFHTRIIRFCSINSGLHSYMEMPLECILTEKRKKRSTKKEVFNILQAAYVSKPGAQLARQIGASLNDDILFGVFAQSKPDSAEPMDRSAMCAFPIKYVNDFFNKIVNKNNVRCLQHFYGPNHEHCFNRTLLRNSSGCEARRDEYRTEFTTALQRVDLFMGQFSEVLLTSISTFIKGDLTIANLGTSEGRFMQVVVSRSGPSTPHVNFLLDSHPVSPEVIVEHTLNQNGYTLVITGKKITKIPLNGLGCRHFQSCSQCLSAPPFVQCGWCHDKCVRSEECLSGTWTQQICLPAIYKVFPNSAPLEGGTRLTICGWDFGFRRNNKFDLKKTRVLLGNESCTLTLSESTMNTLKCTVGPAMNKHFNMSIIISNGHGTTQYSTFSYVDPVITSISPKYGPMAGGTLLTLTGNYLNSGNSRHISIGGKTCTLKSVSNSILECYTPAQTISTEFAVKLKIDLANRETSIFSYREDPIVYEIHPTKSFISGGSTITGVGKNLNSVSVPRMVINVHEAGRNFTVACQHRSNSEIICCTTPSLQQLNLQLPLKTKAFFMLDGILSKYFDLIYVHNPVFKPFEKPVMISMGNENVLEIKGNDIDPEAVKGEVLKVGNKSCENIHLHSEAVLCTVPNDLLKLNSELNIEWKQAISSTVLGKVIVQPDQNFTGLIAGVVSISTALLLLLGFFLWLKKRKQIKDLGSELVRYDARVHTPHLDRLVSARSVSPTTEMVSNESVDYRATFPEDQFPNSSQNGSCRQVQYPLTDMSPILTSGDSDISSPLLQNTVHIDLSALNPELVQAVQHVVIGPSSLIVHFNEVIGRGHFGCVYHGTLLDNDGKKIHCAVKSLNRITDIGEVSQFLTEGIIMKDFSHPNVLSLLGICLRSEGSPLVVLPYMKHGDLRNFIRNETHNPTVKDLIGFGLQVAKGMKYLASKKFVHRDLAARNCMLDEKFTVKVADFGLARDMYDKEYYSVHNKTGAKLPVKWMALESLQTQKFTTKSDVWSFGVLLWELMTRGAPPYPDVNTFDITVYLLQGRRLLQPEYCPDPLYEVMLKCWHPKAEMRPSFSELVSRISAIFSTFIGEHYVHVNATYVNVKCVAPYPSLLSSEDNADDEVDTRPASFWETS

[6] = target: T1, Hepatocyte growth factor receptor; experiment: Induction of c-Met degradation in human MHCC97H cells assessed as downregulation of c-Met protein level at 500 nM after 24 hrs by Western blotting analysis; type: cell-based
MHCC97H [7] = experiment: Induction of cell cycle arrest in human MHCC97H cells assessed as accumulation of cells at G2 phase at 3 nM incubated for 24 hrs by PI staining based flow cytometry analysis (reference value: 19.1%); type: functional
[8] = target: T1, Hepatocyte growth factor receptor; experiment: Induction of c-Met degradation in human HepG2 cells incubated for 24 hrs by Western blotting analysis; type: cell-based; conditions: dose 63-100 nM
[9] = target: T1, Hepatocyte growth factor receptor; experiment: Induction of c-Met degradation in human MHCC97H cells at 500 nM after 3 to 24 hrs by Western blotting analysis; type: cell-based; conditions: time 3-24 hrs
Mus musculus [10] = experiment: Downregulation of phosphorylated STAT3 level in BALB/c mouse tumor xenografted with human MHCC97H cells at 20 mg/kg, po qd for 22 days and measured every 2 days by Western blotting analysis; type: functional, organism-based; conditions: time 22.0 day
[11] = Toxicity in BALB/c mouse xenografted with human MHCC97H cells assessed as kidney lesions at 20 mg/kg, po qd for 22 days and measured every 2 days by H and E staining based assay; type: organism-based; conditions: in vivo, 528 h, time 22 day
[12] = Toxicity in BALB/c mouse xenografted with human MHCC97H cells assessed as spleen lesions at 20 mg/kg, po qd for 22 days and measured every 2 days by H and E staining based assay; type: organism-based; conditions: in vivo, 528 h, time 22 day
Mus musculus [13] = experiment: Downregulation of c-Met protein level in BALB/c mouse tumor xenografted with human MHCC97H cells at 10 mg/kg, ip qd for 22 days and measured every 2 days by Western blotting analysis; type: functional, organism-based; conditions: time 22.0 day
[14] = target: T1, Hepatocyte growth factor receptor; experiment: Induction of c-Met degradation in human MHCC97H cells at 500 nM after 24 hrs in presence of MG-132 by Western blotting analysis; type: cell-based
[15] = Toxicity in BALB/c mouse xenografted with human MHCC97H cells assessed as kidney lesions at 10 mg/kg, ip qd for 22 days and measured every 2 days by H and E staining based assay; type: organism-based; conditions: in vivo, 528 h, time 22 day
MHCC97H [16] = experiment: Induction of apoptosis in human MHCC97H cells assessed as late apoptotic cells at 3 nM incubated for 24 hrs by Annexin-V-FITC/PI staining based flow cytometry analysis (reference value: 4.24%); type: functional
[17] = Clearance in Sprague-Dawley rat at 10 mg/kg, po by LC-MS/MS method; type: ADME, organism-based; conditions: in vivo
MHCC97H [18] = experiment: Inhibition of colony formation in human MHCC97H cells at 3 to 100 nM incubated for 2 weeks by crystal violet staining based assay; type: functional, cell-based; conditions: dose 3-100 nM
[19] = Toxicity in BALB/c mouse xenografted with human MHCC97H cells assessed as liver lesions at 20 mg/kg, po qd for 22 days and measured every 2 days by H and E staining based assay; type: organism-based; conditions: in vivo, 528 h, time 22 day
[20] = Cmax in Sprague-Dawley rat at 10 mg/kg, po by LC-MS/MS method; type: ADME, organism-based; conditions: in vivo
MHCC97H [21] = experiment: Induction of apoptosis in human MHCC97H cells assessed as late apoptotic cells at 100 nM incubated for 24 hrs by Annexin-V-FITC/PI staining based flow cytometry analysis (reference value: 4.24%); type: functional
Mus musculus [22] = experiment: Downregulation of phosphorylated c-Met level in BALB/c mouse tumor xenografted with human MHCC97H cells at 10 mg/kg, ip qd for 22 days and measured every 2 days by Western blotting analysis; type: functional, organism-based; conditions: time 22.0 day
[23] = Half-life in Sprague-Dawley rat at 1 mg/kg, iv by LC-MS/MS method; type: ADME, organism-based; conditions: in vivo
MHCC97H [24] = experiment: Induction of apoptosis in human MHCC97H cells assessed as necrotic cells at 100 nM incubated for 24 hrs by Annexin-V-FITC/PI staining based flow cytometry analysis (reference value: 1.77%); type: functional
Mus musculus [25] = experiment: Downregulation of phosphorylated STAT3 level in BALB/c mouse tumor xenografted with human MHCC97H cells at 10 mg/kg, ip qd for 22 days and measured every 2 days by Western blotting analysis; type: functional, organism-based; conditions: time 22.0 day
[26] = Toxicity in BALB/c mouse xenografted with human MHCC97H cells assessed as liver lesions at 10 mg/kg, ip qd for 22 days and measured every 2 days by H and E staining based assay; type: organism-based; conditions: in vivo, 528 h, time 22 day
BaF3 = experiment: Antiproliferative activity against mouse BaF3 cells harboring TPR-MET fusion protein incubated for 72 hrs by CellTiter-Glo reagent based assay; type: functional, cell-based; conditions: BaF3, 72 h
MHCC97H [27] = experiment: Induction of apoptosis in human MHCC97H cells assessed as early apoptotic cells at 10 nM incubated for 24 hrs by Annexin-V-FITC/PI staining based flow cytometry analysis (reference value: 7.70%); type: functional
MHCC97H [28] = experiment: Antiproliferative activity against human MHCC97H cells incubated for 24 hrs by CCK8 assay; type: functional, cell-based
MHCC97H [29] = experiment: Induction of apoptosis in human MHCC97H cells assessed as viable cells at 3 nM incubated for 24 hrs by Annexin-V-FITC/PI staining based flow cytometry analysis (reference value: 86.3%); type: functional; conditions: read-out: Activity
MHCC97H [30] = experiment: Induction of cell cycle arrest in human MHCC97H cells assessed as accumulation of cells at G2 phase at 10 nM incubated for 24 hrs by PI staining based flow cytometry analysis (reference value: 19.1%); type: functional

SMILES: N#Cc1cccc(-c2ccc(=O)n(Cc3cccc(-c4ncc(OCC5CCN(CCCCCC(=O)NCC67CC8CC(CC(C8)C6)C7)CC5)cn4)c3)n2)c1
- Tmax [1]: 1.17 h
- Activity (MHCC97H [2]): 0.74%
- Activity (MHCC97H [3]): Active
- Activity [4]: Non-Toxic
- Activity [5]: 84.8%
- Activity [6]: Active
- Activity (MHCC97H [7]): 15.9%
- Activity [8]: Dose-Dependent Effect
- Activity [9]: Active
- Activity (Mus musculus [10]): Active
- Activity [11]: Non-Toxic
- Activity [12]: Non-Toxic
- Activity (Mus musculus [13]): Active
- Activity [14]: inactive
- Activity [15]: Non-Toxic
- Activity (MHCC97H [16]): 3.76%
- CL/F [17]: 199 L/h/kg
- inhibition (MHCC97H [18]): Active
- Activity [19]: Non-Toxic
- Cmax [20]: 16.3 ng/mL
- Activity (MHCC97H [21]): 6.06%
- Activity (Mus musculus [22]): Active
- half-life [23]: 2.5 h
- Activity (MHCC97H [24]): 1.35%
- Activity (Mus musculus [25]): Active
- Activity [26]: Non-Toxic
- IC50 (BaF3): 6.2 nM
- Activity (MHCC97H [27]): 19.7%
- IC50 (MHCC97H [28]): 2.62 nM
- viability at 0.003 µM (MHCC97H [29]): 79.5%
- Activity (MHCC97H [30]): 14.3%
